# Assay results taken from US9586928B2 (The Scripps Research Institute, priority 2011, dated 2017).
# Key:
# VP16 = experiment: Gal4 DBD-VP16 / UAS luciferase control assay; format: cell-based; details: 10 μM
# Method: (§1) The cells were treated with either DMSO or various compounds as indicated four hours after replating. Following additional 20 hour incubation, luciferase levels were assayed by one-step addition of 20 μL BriteLite (Perkin Elmer) and read using an Envision multilabel plate reader (Perkin Elmer).
# LXR = molecular target: T1, LXR (Homo sapiens, UniProt Q13133); experiment: Gal4-LXRα / UAS luciferase cotransfection assay; format: cell-based; details: 10 μM
# T1 sequence (Q13133 209-447 limits assumed): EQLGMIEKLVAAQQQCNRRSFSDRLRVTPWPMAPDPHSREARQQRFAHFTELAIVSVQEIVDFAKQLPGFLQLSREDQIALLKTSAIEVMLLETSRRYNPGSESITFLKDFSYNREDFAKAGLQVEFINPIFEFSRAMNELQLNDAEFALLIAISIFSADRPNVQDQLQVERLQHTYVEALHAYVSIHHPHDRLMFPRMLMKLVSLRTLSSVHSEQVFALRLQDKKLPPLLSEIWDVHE
# RORα = molecular target: T2, RORα (Homo sapiens, UniProt P35398); experiment: Gal4-RORα LBD / UAS luciferase cotransfection assay; format: cell-based; details: 10 μM
# T2 construct: expressed in transfected cells; host or cells: HEK293T
# T2 sequence (P35398 272-510 limits assumed): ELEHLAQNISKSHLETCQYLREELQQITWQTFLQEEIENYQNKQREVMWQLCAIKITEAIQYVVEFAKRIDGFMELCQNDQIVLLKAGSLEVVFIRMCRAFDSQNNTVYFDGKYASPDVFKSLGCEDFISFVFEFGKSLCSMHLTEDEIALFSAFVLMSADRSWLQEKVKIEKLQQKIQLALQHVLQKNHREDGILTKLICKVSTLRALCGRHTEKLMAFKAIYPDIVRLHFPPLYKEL
# Method: as §1
# Cotransfection assays were performed as previously described in HEK293 cells (Gal4 cotransfection assay or IL-17 luciferase reporter)[8]. HEK293 and the mouse lymphoma EL4 (ATCC) cells were maintained in DMEM supplemented with 10% FBS plus antibiotics (penicillin and streptomycin; Invitrogen).
# RORγ = molecular target: T3, RORγ (Homo sapiens, UniProt P51449); experiment: Gal4-RORγ LBD / UAS luciferase cotransfection assay; format: cell-based; details: for RORγ repression, fold change over DMSO: 10 μM
# T3 construct: expressed in transfected cells; host or cells: HEK293T
# T3 sequence (P51449 269-508 limits assumed): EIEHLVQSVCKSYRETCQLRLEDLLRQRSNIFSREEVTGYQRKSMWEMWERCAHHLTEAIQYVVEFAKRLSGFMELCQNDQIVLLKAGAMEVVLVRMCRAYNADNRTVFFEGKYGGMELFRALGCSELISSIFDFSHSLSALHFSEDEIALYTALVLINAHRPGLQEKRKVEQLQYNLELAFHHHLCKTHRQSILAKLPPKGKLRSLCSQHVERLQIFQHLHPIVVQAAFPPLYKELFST
# GST-RORγ = molecular target: T4, GST-RORγ (Homo sapiens, UniProt P51449); experiment: RORγ scintillation proximity (SPA) radioligand binding assay, displacement of [3H]-T0901317; details: for IC50: displacement of 5 nM [3H]-T0901317 from GST-RORγ; for remaining activity at 10 µM: 10 μM compound, read-out: RORγ SPA % bound = % radiolabel bound
# T4 construct: 1 μg of GST-RORγ-LBD, 5 nM of [3H]T1317 as radioligand
# T4 sequence (P51449 269-508 limits assumed): T3 sequence (P51449 269-508 limits assumed)
SMILES,"VP16 repression, fold change over DMSO (VP16) [fold change over DMSO]","LXR activation, fold change over DMSO (LXR) [fold change over DMSO]","RORα repression, fold change over DMSO (RORα) [fold change over DMSO]",IC50 (RORγ; Gal4 cotransfection) [nM],IC50 (GST-RORγ) [nM],"RORγ repression, fold change over DMSO (RORγ) [fold change over DMSO]",remaining activity at 10 µM (GST-RORγ) [%]
"OC(c1ccc(-c2ccc(CN3CCN(Cc4ccncc4)CC3)cc2)cc1)(C(F)(F)F)C(F)(F)F [Compound 1, 1,1,1,3,3,3-Hexafluoro-2-(4′-((4-(pyridin-4-ylmethyl)piperazin-1-yl)methyl)-[1,1′-biphenyl]-4-yl)propan-2-ol]",1,1,1,400,150,,
"OC(c1ccc(-c2ccc(CN3CCN(C4CC4)CC3)cc2)cc1)(C(F)(F)F)C(F)(F)F [Compound 17, 2-(4′-((4-Cyclopropylpiperazin-1-yl)methyl)-[1,1′-biphenyl]-4-yl)-1,1,1,3,3,3-hexafluoropropan-2-ol]",0.4,0.75,0.55,,,0.25,20
"OC(c1ccc(-c2ccc(CN3CCN(Cc4ccncc4Br)CC3)cc2)cc1)(C(F)(F)F)C(F)(F)F [Compound 59, 2-(4′-((4-((3-Bromopyridin-4-yl)methyl)piperazin-1-yl)methyl)-[1,1′-biphenyl]-4-yl)-1,1,1,3,3,3-hexafluoropropan-2-ol]",0.4,4,0.4,,1100,0.05,
"OC(c1ccc(-c2ccc(CN3CCC(Cc4ccc5c(c4)OCO5)CC3)cc2)cc1)(C(F)(F)F)C(F)(F)F [Compound 88, 2-(4′-((4-(Benzo[d][1.3]dioxol-5-ylmethyl)piperidin-1-yl)methyl)-[1,1′-biphenyl]-4-yl)-1,1,1,3,3,3-hexafluoropropan-2-ol]",0.3,1.3,0.6,,,0.2,35
OC(c1ccc(-c2ccc(CN3CCN(Cc4ccncc4Cl)CC3)cc2)cc1)(C(F)(F)F)C(F)(F)F [Compound 92],0.6,5,0.7,,,0.1,25
"Cc1cc(-c2ccc(C(O)(C(F)(F)F)C(F)(F)F)cc2)ccc1CN1CCN(Cc2ccncc2)CC1 [Compound 94, 1,1,1,3,3,3-Hexafluoro-2-(3′-methyl-4′-((4-(pyridin-4-ylmethyl)piperazin-1-yl)methyl)-[1,1′-biphenyl]-4-yl)propan-2-ol]",0.8,0.8,0.5,,230,0.05,
"OC(c1ccc(-c2ccc(CN3CCN(Cc4ccncc4)CC3)cc2F)cc1)(C(F)(F)F)C(F)(F)F [Compound 95, 1,1,1,3,3,3-Hexafluoro-2-(2′-fluoro-4′-((4-(pyridin-4-ylmethyl)piperazin-1-yl)methyl)-[1,1′-biphenyl]-4-yl)propan-2-ol]",0.7,5,0.5,,,0.05,
"COc1cc(-c2ccc(C(O)(C(F)(F)F)C(F)(F)F)cc2)ccc1CN1CCN(Cc2ccncc2)CC1 [Compound 97, 1,1,1,3,3,3-Hexafluoro-2-(3′-methoxy-4′-((4-(pyridin-4-ylmethyl)piperazin-1-yl)methyl)-[1,1′-biphenyl]-4-yl)propan-2-ol]",0.5,1,0.5,,1500,0.05,
"OC(c1ccc(-c2ccc(CN3CCN(Cc4ccncc4)CC3)c(F)c2)cc1)(C(F)(F)F)C(F)(F)F [Compound 98, 1,1,1,3,3,3-Hexafluoro-2-(3′-fluoro-4′-((4-(pyridin-4-ylmethyl)piperazin-1-yl)methyl)-[1,1′-biphenyl]-4-yl)propan-2-ol]",0.65,2,0.8,,1500,0.05,
"O=C(c1ccc(-c2ccc(C(O)(C(F)(F)F)C(F)(F)F)cc2)cc1)N1CCN(Cc2ccncc2)CC1 [Compound 100, (4′-(1,1,1,3,3,3-Hexafluoro-2-hydroxypropan-2-yl)-[1,1′-biphenyl]-4-yl)(4-(pyridin-4-ylmethyl)piperazin-1-yl)methanone]",0.4,0.8,0.6,,1700,0.1,
"OC(c1ccc(-c2ccc(CN3CCN(Cc4c(F)cncc4F)CC3)cc2)cc1)(C(F)(F)F)C(F)(F)F [Compound 101, 2-(4′-((4-((3,5-Difluoropyridin-4-yl)methyl)piperazin-1-yl)methyl)-[1,1′-biphenyl]-4-yl)-1,1,1,3,3,3-hexafluoropropan-2-ol]",0.75,4,0.8,,,0.15,
"OC(c1ccc(-c2ccc(CN3CCC(Nc4ccncc4)CC3)cc2)cc1)(C(F)(F)F)C(F)(F)F [Compound 104, 1,1,1,3,3,3-Hexafluoro-2-(4′-((4-(pyridin-4-ylamino)piperidin-1-yl)methyl)-[1,1′-biphenyl]-4-yl)propan-2-ol]",0.4,1.1,0.9,,,0.1,20
"OC(c1ccc(-c2ccc(CN3CCN(Cc4cncs4)CC3)cc2)cc1)(C(F)(F)F)C(F)(F)F [Compound 114, 1,1,1,3,3,3-Hexafluoro-2-(4′-((4-(thiazol-5-ylmethyl)piperazin-1-yl)methyl)-[1,1′-biphenyl]-4-yl)propan-2-ol]",0.92,0.63,0.79,,,0.87,50
"OC(c1ccc(-c2ccc(CN3CCN(Cc4cscn4)CC3)cc2)cc1)(C(F)(F)F)C(F)(F)F [Compound 115, 1,1,1,3,3,3-Hexafluoro-2-(4′-((4-(thiazol-4-ylmethyl)piperazin-1-yl)methyl)-[1,1′-biphenyl]-4-yl)propan-2-ol]",0.69,0.76,0.61,,,0.31,75
